Measured values from patent publication US20260364088A1, “TASL MIMICKING MOLECULES AND APPLICATIONS THEREOF” (CEMM - FORSCHUNGSZENTRUM FÜR MOLEKULARE MEDIZIN GMBH, priority 2022, published 2026).

Columns and labels:
SLC15A4-GFP = SLC15A4-GFP (Homo sapiens, UniProt Q8N697); assay: SLC15A4-GFP levels when expressed alone in HEK293T cells; type: cell-based; conditions: 10 µM, 24 h
Protocol: Cells transfected with TASL-V5 plasmid were stained for V5-tag and detected with deep red Alexa Fluor 647 secondary antibody to allow for selection in the presence of an mCherry reporter. Cells were measured either immediately after staining or in the case of live cells immediately after harvesting and washing with PBS. Data were acquired on a BD FACSCalibur (BD Biosciences) and analyzed with FlowJo software (version 10).
For live cell imaging cells were plated in PhenoPlate 96-well plates or Ibidi m-Slide 8 (Ibidi) wells at 16 k/well and incubated over-night. Then compounds were added, if indicated, and cells were imaged after 24 h of incubation. Cells were stained with LysoTracker Deep Red L12492 (ThermoFisher) and Hoechst 34580 (ThermoFisher). […] Images were analyzed with Fiji-ImageJ.
(§1) Encouraged by the fact that the chemical entity of the present invention was showing the desired behavior and specificity profile, it became important to better clarify the molecular basis of this uncommon mechanism of action, i.e interference with a highly specific protein interaction leading to degradation of a single complex component. The effect of dTASL1 on complex assembly was first monitored. […]

SLC15A4 = target: T1, SLC15A4 (Homo sapiens, UniProt Q8N697); assay: Competition assay with V5-tagged N-terminal TASL fragments (V5 immunofluorescence); type: cell-based; conditions: TASL-V5 fragments of first 94 and 193 amino acids; 10 mM dTASL1, 24 h
T1 construct: transient TASL-V5 N-terminal fragments 1-94 and 1-193 (C-terminal V5) as partner
T1 sequence (Q8N697 whole entry, the tested form may be a part): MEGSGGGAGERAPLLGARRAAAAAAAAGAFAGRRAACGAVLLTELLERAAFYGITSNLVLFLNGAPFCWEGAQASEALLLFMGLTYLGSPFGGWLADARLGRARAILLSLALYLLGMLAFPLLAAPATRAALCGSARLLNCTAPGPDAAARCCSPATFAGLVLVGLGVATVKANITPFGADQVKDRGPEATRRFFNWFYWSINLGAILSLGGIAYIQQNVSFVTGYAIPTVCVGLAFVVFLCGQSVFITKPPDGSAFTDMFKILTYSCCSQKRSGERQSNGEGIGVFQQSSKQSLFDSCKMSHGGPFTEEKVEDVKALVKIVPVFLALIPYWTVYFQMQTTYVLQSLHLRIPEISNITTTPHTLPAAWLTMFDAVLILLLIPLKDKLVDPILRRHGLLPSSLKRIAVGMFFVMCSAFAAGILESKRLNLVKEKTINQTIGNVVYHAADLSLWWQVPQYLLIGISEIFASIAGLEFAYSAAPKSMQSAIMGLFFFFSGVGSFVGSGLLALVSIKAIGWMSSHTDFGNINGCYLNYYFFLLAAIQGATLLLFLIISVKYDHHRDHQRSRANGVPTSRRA
Protocol: For staining of fixed cells, 12 k cells/well were seeded in tissue culture-treated PhenoPlate 96-well plates (PerkinElmer) and incubated over-night. Cells were transfected with TASL-V5 fragments the next day and subsequently TASL-V5 expression was induced by addition of 1 μg/ml doxycycline and […] dTASL1 or an equivalent volume of DMSO respectively. Compound and doxycycline were added at the same time, to allow dTASL1 to occupy SLC15A4 binding sites in advance of TASL binding. Cells were fixed after 24 h of incubation for 10 min with 4% formaldehyde in PBS and permeabilized and blocked with 0.2% Triton X-100 (Sigma) and 5% FBS in PBS for 1 h. Cells were stained overnight at 4 °C with a mouse anti V5 primary antibody (Invitrogen) in blocking solution. Cells were washed 3 time in PBS and stained for 1.5 h with fluorescently labelled goat anti mouse Alexa-568 (Invitrogen) secondary antibody. […]
as §1

[1] = test system: TNF production in CD14^+ monocytes; assay: TNF ELISA, R848-stimulated purified CD14^+ monocytes; type: cell-based, human; conditions: purified CD14^+ cells, dTASL1 10 µM 24 h, R848 (5 μg/ml) 16 h, n=8
Excerpt: HEK293T cells and THP1 cells were purchased from ATCC, THP1 DUAL/ISRE reporter cell lines from Invivogen. CAL-1 cells were provided by T. Maeda (Nagasaki University). Cell lines—except for CAL-1—were authenticated by short tandem repeat profiling and regularly tested for mycoplasma contamination. Human primary PBMCs were isolated from the blood of anonymous healthy donors as well as SLE patients included in our biobank approved by the ethics committee of the Medical University of Vienna (EK2071/2020 and EK1075/2021). CD14^+ monocytes were purified by magnetic-activated cell sorting (Miltenyi Biotec, #130-050-201) according to the manufacturers protocol. Purity of CD14^+ cells ranged between 80.8% and 94.2% as determined by flow cytometry analysis. […]
Given that all evidence obtained seems to confirm the mechanistic precision of this chemical agent, any further consideration of assessing the therapeutic potential required evidence for activity in human primary cells relevant for SLE pathophysiology. The effect of dTASL1 in human peripheral blood mononuclear cells (PBMCs) was assessed. […] The impact of dTASL1 on TLR7/8 responses by directly monitoring IRF5 by confocal microscopy in B cells was assessed.

SLC15A4-GFP, sequence (Q8N697 whole entry): as the sequence (Q8N697 whole entry, the tested form may be a part) above

CCOc1ccc(-c2cc(C(=O)NCCCN3CCCCC3C)c3ccccc3n2)cc1 (stereo not drawn) [dTASL1, 2-(4-ethoxyphenyl)-N-(3-(2-methylpiperidin-1-yl)propyl) quinoline-4-carboxamide]
total levels of SLC15A4-GFP (SLC15A4-GFP): did not affect total levels of SLC15A4-GFP | SLC15A4-localized V5 signal (SLC15A4): reduce SLC15A4-localized V5 signal for both short TASL portions | TNF production [1]: a significant reduction in this proinflammatory cytokine
